# According to patent publication US20260248815A1, “NEUROACTIVE STEROID FORMULATIONS AND METHODS OF USE THEREOF” (Sage Therapeutics, LLC, priority 2023, published 2026):
# Read-outs that look alike come from different tables or passages of the source.
# Assay: Open-label single-dose PK study in participants with hepatic impairment and normal hepatic function
# Type: in vivo, human
# Details: GeoMean, single 1.2 mg oral dose softgel capsules; for Cmax / AUC(0-inf) / AUC(0-t) / Tmax / Vd/F: human, in vivo, po, 1.2 mg; for Vd/F: read-out: Vz/F
# Method: In an open-label, parallel group study to evaluate the PK, safety, and tolerability of Compound I, a single 1.2 mg oral dose of softgel capsules was administered to participants with hepatic impairment and in participants with normal hepatic function. Part 1 of the study comprised participants with moderate hepatic impairment (as determined by the Child-Pugh classifications; Class B (7 to 9 points)) and participants with normal hepatic function assigned to Cohorts 1 and 2, respectively. After Cohort 1 had been completely enrolled, participants with normal hepatic function (Cohort 2) were matched to Cohort 1 participants with respect to sex, mean age (10 years) and mean body mass index (BMI; 20%).
# On Day 1, participants in Cohorts 1 and 2 received a single oral dose of 1.2 mg Compound I softgel capsules in the morning. Serial blood samples for PK analysis were collected through 168 hours post dose.
# [1] = Cohort 1: moderate hepatic impairment, N 8
# [2] = Cohort 2: normal hepatic function, N 7
# [3] = Cohort 2: normal hepatic function, N 8
smiles,measurement,setting,value
C[C@H](CC[C@](C)(O)C(F)(F)F)[C@H]1CC[C@H]2[C@@H]3CC=C4C[C@@](C)(O)CC[C@]4(C)[C@H]3CC[C@]12C [Compound I],CLz/F,[1],5.5 L/h
same,tlast,[1],53.9 h
same,CLz/F,[2],4.71 L/h
same,tlast,[3],64.3 h
same,Cmax,"Cohort 1: moderate hepatic impairment (Child-Pugh Class B), N 8",12.2 ng/mL
same,AUC(0-inf),[1],218 ng·h/mL
same,AUC(0-t),[1],188 ng·h/mL
same,Tmax,[1],3.69 h
same,Vd/F,[1],153 L
same,AUC(0-inf),[2],255 ng·h/mL
same,AUC(0-t),[2],238 ng·h/mL
same,Vd/F,[2],151 L
same,Cmax,[3],15.7 ng/mL
same,Tmax,[3],3.99 h
